Data taken from PubChem BioAssay AID2060496 (Molecular Pharmacology Branch, DTP, NCI, 2025).

Test system: 276233-004-R-J1-PDC complex spheroid viability
Experiment: Anticancer human tumor 276233-004-R-J1-PDC patient-derived colon adenocarcinoma cell line growth inhibition [GQUAD]
Conditions: for IC50: curve of first compound; for viability, T/C: stronger effect = lower value
Outline: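 Tumor cells were grown as complex spheroids with HUVEC endothelial cells and mesenchymal stem cells as stroma. G-quadruplex stabilizers were combined with targeted agents over half-log dilutions from near the clinical Cmax, or from 10 microM.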
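Further: spheroids exposed to drugs for seven days.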
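Wherever viability, T/C is given: 100% = DMSO vehicle control viability.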

## CC(C)(O)C1CCC(Nc2ccc3ncc(-c4cccc(C(F)(F)F)c4)n3n2)CC1 (configuration not stated) + CN(C)c1ccc(Nc2c3ccc(NC(=O)CCN4CCCC4)cc3nc3cc(NC(=O)CCN4CCCC4)ccc23)cc1
Second compound 0.0316 µM
  IC50: > 10 µM
Second compound 0.1 µM
  IC50: 2.55 µM
Second compound 0.316 µM
  IC50: > 10 µM
Second compound 1 µM
  IC50: 1.06 µM
Second compound 3.16 µM
  IC50: 0.101 µM
Second compound 10 µM
  IC50: < 0.0316 µM
Second compound 0.0316 µM, first compound 0.0316 µM
  viability, T/C: 90.4%
Second compound 0.0316 µM, first compound 0.1 µM
  viability, T/C: 84.4%
Second compound 0.0316 µM, first compound 0.316 µM
  viability, T/C: 55.8%
Second compound 0.0316 µM, first compound 1 µM
  viability, T/C: 84%
Second compound 0.0316 µM, first compound 3.16 µM
  viability, T/C: 48.6%
Second compound 0.0316 µM, first compound 10 µM
  viability, T/C: 57%
Second compound 0.1 µM, first compound 0.0316 µM
  viability, T/C: 82.6%
Second compound 0.1 µM, first compound 0.1 µM
  viability, T/C: 69.2%
Second compound 0.1 µM, first compound 0.316 µM
  viability, T/C: 62.7%
Second compound 0.1 µM, first compound 1 µM
  viability, T/C: 57.4%
Second compound 0.1 µM, first compound 3.16 µM
  viability, T/C: 45.2%
Second compound 0.1 µM, first compound 10 µM
  viability, T/C: 46%
Second compound 0.316 µM, first compound 0.0316 µM
  viability, T/C: 55.9%
Second compound 0.316 µM, first compound 0.1 µM
  viability, T/C: 55.4%
Second compound 0.316 µM, first compound 0.316 µM
  viability, T/C: 50.2%
Second compound 0.316 µM, first compound 1 µM
  viability, T/C: 57.1%
Second compound 0.316 µM, first compound 3.16 µM
  viability, T/C: 55%
Second compound 0.316 µM, first compound 10 µM
  viability, T/C: 46.6%
Second compound 1 µM, first compound 0.0316 µM
  viability, T/C: 75%
Second compound 1 µM, first compound 0.1 µM
  viability, T/C: 56.3%
Second compound 1 µM, first compound 0.316 µM
  viability, T/C: 54.4%
Second compound 1 µM, first compound 1 µM
  viability, T/C: 56.3%
Second compound 1 µM, first compound 3.16 µM
  viability, T/C: 50.2%
Second compound 1 µM, first compound 10 µM
  viability, T/C: 41%
Second compound 3.16 µM, first compound 0.0316 µM
  viability, T/C: 67.5%
Second compound 3.16 µM, first compound 0.1 µM
  viability, T/C: 45.4%
Second compound 3.16 µM, first compound 0.316 µM
  viability, T/C: 51.3%
Second compound 3.16 µM, first compound 1 µM
  viability, T/C: 39%
Second compound 3.16 µM, first compound 3.16 µM
  viability, T/C: 46.8%
Second compound 3.16 µM, first compound 10 µM
  viability, T/C: 34%
Second compound 10 µM, first compound 0.0316 µM
  viability, T/C: 46.3%
Second compound 10 µM, first compound 0.1 µM
  viability, T/C: 43.4%
Second compound 10 µM, first compound 0.316 µM
  viability, T/C: 41.8%
Second compound 10 µM, first compound 1 µM
  viability, T/C: 35.5%
Second compound 10 µM, first compound 3.16 µM
  viability, T/C: 41%
Second compound 10 µM, first compound 10 µM
  viability, T/C: 22.4%
